We go through six compounds from patent US6858588B2, “Nitrile glycoside useful as a bioenhancer of drugs and nutrients, process of its isolation from moringa oleifera” (Council of Scientific and Industrial Research, priority 2003, dated 2005).

For data set [1] the following is noted: anaesthetized rat, 1-10 mg/kg I.V; cited from earlier work.
For data set [2] the following is noted: human volunteers; formulation containing rifampicin, pyrazinamide and isoniazid; cited from earlier work.
Another data set relates to B. subtilis (MTCC121). As to the kind of experiment: Bioactivity enhancement of antibiotics (killing, broth/titre assay) against B. subtilis. The class given is cell-based, Bacillus subtilis. The following applies: Table 5; Amp (0.01) alone.
The next data set relates to M. smegmatis (MC^2 155). As to the kind of experiment: Bioactivity enhancement of antibiotics (killing, broth/titre assay) against M. smegmatis. The class given is cell-based, Mycobacterium smegmatis. The following applies: Table 5; Amp (0.1) alone.
For a further data set, the system named is E. coli (CA8000). The experiment in a line: Bioactivity enhancement of antibiotics (killing, broth/titre assay) against E. coli. The following applies: Table 4; Amp 6 μg/ml alone.
For another data set, the system named is C. albicans. As to the kind of experiment: Enhancement of anticandidial activity of clotrimazole, broth assay. The following applies: Clotrimazole alone 0.5 ug/ml.

As to niaziminin B, the “Hypotensive and bradycardiac effect” value in data set [1] is “produced hypotensive and bradycardiac effect”.

As to `O=C(/C=C/C=C/c1ccc2c(c1)OCO2)N1CCCCC1` [piperine], the “Comparative levels and peak concentration of the drugs in the presence of piperine” value in data set [2] was “higher”.

For the compound `CC1(C)S[C@@H]2[C@H](NC(=O)[C@H](N)c3ccccc3)C(=O)N2[C@H]1C(=O)O` [Amp, ampicillin, reference compound], the figures for the “% Survival” value with B. subtilis (MTCC121), with M. smegmatis (MC^2 155) and with E. coli (CA8000) were 72.5%, 25.0% and 3.69%, respectively. Also, the Titre with B. subtilis (MTCC121) is on record as 2.9 × 10^8; in the data set with M. smegmatis (MC^2 155), 1.0 × 10^8; in the data set on E. coli (CA8000) it was 8.5 × 10^6.

On to `CCOC(=S)NCc1ccc(OC2OC(C)C(O)C(O)C2O)cc1` (centres unmarked) [niazimicin], for which, in data set [1], the “Hypotensive and bradycardiac effect” value was “produced hypotensive and bradycardiac effect”.

niaziminin A: the “Hypotensive and bradycardiac effect” value in data set [1] is “produced hypotensive and bradycardiac effect”.

For the compound `Clc1ccccc1C(c1ccccc1)(c1ccccc1)n1ccnc1` [Clotrimazole, clotrimazole, reference compound], the “Cfu/ml at 36 h” value with C. albicans is given as 23.6 × 10^5 Cfu/ml.
